The series is described as follows: Bioavailability: plasma concentration after single oral administration to rats. It counts as in vivo, male Sprague-Dawley rats. Conditions: for AUC: 50 mg/Kg po, 3 rats; for Detection of the administered phosphate compound itself in the blood samples / Delivery of parent drug (PL-100, PL-337) by aqueous dosing compared to non-aqueous formulations of PL-100 and PL-337: 50 mg/kg po; for Detection of the administered phosphate compound itself in the blood samples: delivered as aqueous solutions, HPLC-MS of plasma; for Delivery of parent drug (PL-100, PL-337) by aqueous dosing compared to non-aqueous formulations of PL-100 and PL-337: rats. The procedure:
To assess the extent of in vivo cleavage of the phosphate group from the putative compounds, PL-100, PL-462 (based on PL-100), PL-337 and PL-515 (based on PL-337) compounds were administered per os (po) (50 mg/kg) to male Sprague-Dawley rats and their plasma concentration measured at different time intervals post-administration. All test articles (PL-100, PL-462, PL-337 and PL-515) were prepared in different vehicle at the final concentration of 25 mg/mL. The vehicle composition is as follows: (1) 20% ethanol; 50% propylene glycol; 0.05% w/v Tween 20 and water (Mix); (2) PBS buffer (PBS). Test articles were administered to male Sprague-Dawley rats at a single oral dose of 50 mg/kg. Each article was tested in three rats. Blood samples (0.2-0.3 mL) were collected at the post-dose time of 10, 20, 40, 60, 120, 180 and 360 minutes. The harvested blood was centrifuged to isolate plasma. The resulting plasma was separated and stored at −70° C. Plasma samples together with standards and quality control samples were treated to precipitate proteins, then analyzed by HPLC-MS, for the presence of PL-462, PL-100, PL-515 and PL-337.

Setting [1] is: vehicle Mix (20% ethanol; 50% propylene glycol; 0.05% w/v Tween 20 and water).
Where [2] appears, read: vehicle PBS, parent drug (PL-100 or PL-337) detected in plasma after dosing the phosphate compound.

Under setting [1], `COC(=O)N[C@H](C(=O)NCCCC[C@@H](CO)N(CC(C)C)S(=O)(=O)c1ccc(N)cc1)C(c1ccccc1)c1ccccc1` [PL-100, (1S,5S)-(1-{5-[(4-amino-benzenesulfonyl)-isobutyl-amino]-6-hydroxy-hexylcarbamoyl}-2,2-diphenyl-ethyl)-carbamic acid methyl ester] registered an AUC of 0.675 ± 0.171 μg/hr*ml.

Under setting [1], `COC(=O)N[C@H](C(=O)NCCCC[C@@H](CO)N(CC(C)C)S(=O)(=O)c1ccc(N)c(F)c1)C(c1ccccc1)c1ccccc1` [PL-337, (1-{5-[(4-amino-3-fluoro-benzenesulfonyl)-isobutyl-amino]-6-hydroxy-hexylcarbamoyl}-2,2-diphenyl-ethyl)-carbamic acid methyl ester] registered an AUC of 1.180 ± 0.196 μg/hr*ml.

Regarding `COC(=O)N[C@H](C(=O)NCCCC[C@@H](COP(=O)([O-])[O-])N(CC(C)C)S(=O)(=O)c1ccc(N)cc1)C(c1ccccc1)c1ccccc1.[Na+].[Na+]` [PL-462, (1S,5S)-(1-{5-[(4-amino-benzenesulfonyl)-isobutyl-amino]-6-phosphonooxy-hexylcarbamoyl}-2,2-diphenyl-ethyl)-carbamic acid methyl ester sodium salt], the “Detection of the administered phosphate compound itself in the blood samples” value was “None of the PL-462 and PL-515 compounds, delivered as aqueous solutions, are detected in the blood samples”; the “Delivery of parent drug (PL-100, PL-337) by aqueous dosing compared to non-aqueous formulations of PL-100 and PL-337” value is “equivalent to slightly superior delivery”. In addition, the AUC under setting [2] came to 0.816 ± 0.295 μg/hr*ml.

Turning to `COC(=O)N[C@H](C(=O)NCCCC[C@@H](COP(=O)(O)O)N(CC(C)C)S(=O)(=O)c1ccc(N)c(F)c1)C(c1ccccc1)c1ccccc1` [PL-515, (1S,5S)-(1-{5-[(4-amino-3-fluoro-benzenesulfonyl)-isobutyl-amino]-6-phosphonooxy-hexylcarbamoyl}-2,2-diphenyl-ethyl)-carbamic acid methyl ester], the “Detection of the administered phosphate compound itself in the blood samples” value is “None of the PL-462 and PL-515 compounds, delivered as aqueous solutions, are detected in the blood samples”; the “Delivery of parent drug (PL-100, PL-337) by aqueous dosing compared to non-aqueous formulations of PL-100 and PL-337” value is “equivalent to slightly superior delivery”. The AUC under setting [2] is reported as 1.075 ± 0.625 μg/hr*ml.

These data come from patent publication US8580995B2, “Lysine-based prodrugs of aspartyl protease inhibitors and processes for their preparation” (priority 2005, dated 2013).
